Key:
Type in all cases: cell-based
[1] = test system: new-born hamster fibroblasts; assay: Collagen production by new-born hamster fibroblasts, [2,3-3H] proline taken into collagen (Experiment 1); conditions: for Relative amount of collagen production: no addition = 100, relative value ± SD
Description: According to conventional manner, the dorsum skin of a new-born hamster was cut and detached, and fibroblasts were isolated from the detached skin. The preparation method is outlined below: To detach the epidermis from the dermis, the debris was placed and allowed to stand at 4° C. overnight in Eagle's minimum essential medium, commercialized by Nippon Suisan Kaisha, Ltd., Tokyo, Japan, containing 0.03 mM Ca^2+, in which 500 units/ml of a dispase commercialized by Godo Shusei Co., Ltd., Tokyo, Japan, was dissolved. The detached dermis was kept at 37° C. for one hour in Dulbecco minimum essential medium (abbreviated as “D-MEM”, hereinafter), commercialized by Nippon Suisan Kaisha, Ltd., Tokyo, Japan, in which 0.25% (v/v) of a collagenase commercialized by Amano Enzyme, Aichi, Japan, was dissolved. Thereafter, the resulting cell debris of the dermis were pipetted into a cell suspension with singly dispersed cells of new-born hamster fibroblasts, followed by collecting the cells by centrifugation. The cells were suspended in phosphate-buffered saline and allowed to stand for 30 min, followed by centrifugally collecting the resulting supernatant with fibroblasts and re-suspending the cells in D-MEM supplemented with 10% (v/v) of a fetal bovine serum (abbreviated as “FCS”, hereinafter) commercialized by GIBCO Bethesda Research Laboratories, Bethesda, Md., USA, into a cell suspension for use in the following assay for collagen production level.
The following cells were cultured in an incubator with 5% (v/v) CO2 at 37° C. Three milliliter aliquots of the cell suspension of new-born hamster fibroblasts, prepared in the above 3, were seeded in 6-well plates to give a cell density of 4×10^5 cells/well and cultured for seven days. To D-MEM supplemented with 10% (v/v) FCS was added and dissolved therein L-ascorbic acid to give a concentration of 0.0, 0.1, 0.2, 0.5, 1.0, 2.0, 5.0, 10.0, 20.0, 50.0, 100.0, or 200.0 μg/ml. Similarly as above, either a heated royal jelly or an unheated royal jelly was added to and dissolved in D-MEM supplemented with 10% (v/v) FCS to give a concentration of 0.0, 0.1, 0.2, 0.5, 1.0, 2.0, 5.0, 10.0, 20.0, 50.0, 100.0, 200.0, or 500.0 μg/ml. Five milliliter aliquot of any one of the above media supplemented with L-ascorbic acid or the heated or unheated royal jelly was added to each well of the plates, which had been removed off the culture supenatants of fibroblast cultures, followed by culturing the cells for three days. Thereafter, the supernatant in each well was replaced with five milliliters of a fresh medium supplemented with the same concentration of L-ascorbic acid or the heated or unheated royal jelly as mentioned-above, and the cells were sequentially cultured for three days, replaced with one milliliter of a fresh medium having the same concentration of L-ascorbic acid or the heated or unheated royal jelly as mentioned-above, cultured for three hours, admixed with [2,3-^3H] proline (40 Ci/mmol) commercialized by Amersham Corp., Div. Amersham International, Ill., USA, which had been dissolved in D-MEM to give a concentration of 3 μCi/well, and further cultured overnight. All the culture media, including those supplemented with L-ascorbic acid or the heated or unheated royal jelly, used in this experiment, were filtered with a 0.22 μm filter before use.
In the above 4, after the fibroblasts of new-born hamster were cultured in the presence of [2,3-^3H] proline, collagen was extracted from the cells in a usual manner and quantified for [2,3-^3H] proline taken thereinto. The quantitation was carried out by the method disclosed by Seong-Jin Kim et al. in Dermatologic Surgery, Vol. 24, pp. 1,054-1,058 (1998). […]

[2] = test system: new-born hamster fibroblasts; assay: Influence of royal jelly on the collagen production by L-ascorbic acid, significant difference test (Experiment 2)
Description: Using the assay system for the collagen production level used in Experiment 1, it was studied the influence of royal jellies on the collagen production by L-ascorbic acids: New-born hamster fibroblasts, prepared similarly as the method in Experiment 1, were seeded in 6-well plates and cultured for seven days. […] In this experiment, three wells were used for each concentration. The results were evaluated whether there existed a significant difference between the count in a control system and those in the test systems with different concentrations of heated or unheated royal jelly, based on the count for the control system with no royal jelly that was detected by a liquid scintillation counter, as a control.

[3] = test system: new-born hamster fibroblasts; assay: TGF-β production by fibroblasts, TGF-β1 Emax ImmunoAssay System (Experiment 4); conditions: 24 hours, no additions = 100, relative value ± SD
Description: To study the mechanism of the enhancement of collagen production by royal jellies and/or L-ascorbic acids, the influence of royal jelly and/or L-ascorbic acid 2-glucoside, which had been reported to enhance the production of mRNA for collagen in fibroblasts, on the production of TGF-β was examined by the following method: • (1) Assay for TGF-β: • TGF-β was assayed on TGF-β1 Emax ImmunoAssay System, commercialized by Promega Corporation, Tokyo, Japan. • (2) Assay for TGF-β produced by fibroblasts in the presence of royal jelly and/or L-ascorbic acid 2-glucoside: • TGF-β was assayed by inoculating 1×10^4 cells/well of new-born hamster fibroblasts, prepared by the method similarly as in Experiment 1, to 96-well microplates, commercialized by Nippon Becton. […]

[4] = test system: new-born hamster fibroblasts; assay: Collagen production by L-ascorbic acid 2-glucoside or sodium L-ascorbate with or without royal jelly, seven-day culture (Experiment 3); conditions: for Collagen production level: no additions = 100, relative value ± SD
Description: Royal jelly was dissolved in D-MEM medium containing 10% (v/v) FCS to give a concentration of 200 μg/ml, and then L-ascorbic acid 2-glucoside was dissolved in the resulting medium to give a concentration of 0.2, 0.5 or 1.0 μg/ml in terms of the weight of L-ascorbic acid. As controls, L-ascorbic acid 2-glucoside was dissolved in D-MEM medium, supplemented with 10% (v/v) FCS but with no royal jelly, to give a concentration of 0.2, 0.5, or 1.0 μg/ml in terms of the weight of L-ascorbic acid. Similarly as in Experiment 1, new-born hamster fibroblasts were cultured for seven days in 6-well plates and further cultured for seven days after the supernatant in each plate was replaced with 5 ml of any of the above media, which dissolved the above-identified L-ascorbic acid 2-glucoside and royal jelly, or those prepared for use as controls. Thereafter, the collagen production level in each well was determined by the same method as in Experiment 1. As a negative control, a medium, supplemented with 200 μg/ml of royal jelly and 1 μg/ml of sodium L-ascorbate in terms of the weight of L-ascorbic acid, was added to the fibroblasts similarly as above, and the cells were cultured for seven days.
The fibroblasts with no addition of L-ascorbic acid 2-glucoside gave a lower collagen production level similarly as that of the control in Experiment 1, independently of the addition of royal jellies. When ascorbic acid 2-glucoside was added to give a concentration of 0.2 μg/ml or more, the collagen production level was enhanced as compared with the system with no L-ascorbic acid 2-glucoside, and the level was more enhanced by the addition of royal jellies.

[5] = test system: new-born hamster fibroblasts; assay: as above; conditions: 1 μg/ml L-ascorbic acid, three days, medium replaced with fresh one, three further days; data omitted
[6] = L-ascorbic acid 2-glucoside 0.2 μg/ml (as L-ascorbic acid) with royal jelly 200 μg/ml
[7] = L-ascorbic acid 2-glucoside 0.2 μg/ml (as L-ascorbic acid), no royal jelly

O=C1O[C@H]([C@@H](O)CO)C([O-])=C1O.[Na+] [L-ascorbic acid, Sodium L-ascorbate]
Relative amount of collagen production ([1]; L-ascorbic acid 0.1 μg/ml): 95 ± 13
Relative amount of collagen production ([1]; L-ascorbic acid 0.2 μg/ml): 118 ± 26
Relative amount of collagen production ([1]; L-ascorbic acid 0.5 μg/ml): 210 ± 33
Relative amount of collagen production ([1]; L-ascorbic acid 1.0 μg/ml): 482 ± 89
Relative amount of collagen production ([1]; L-ascorbic acid 2.0 μg/ml): 1497 ± 155
Relative amount of collagen production ([1]; L-ascorbic acid 5.0 μg/ml): 1755 ± 151
Relative amount of collagen production ([1]; L-ascorbic acid 10.0 μg/ml): 2089 ± 160
Relative amount of collagen production ([1]; L-ascorbic acid 20.0 μg/ml): 2456 ± 186
Relative amount of collagen production ([1]; L-ascorbic acid 50.0 μg/ml): 2841 ± 341
Relative amount of collagen production ([1]; L-ascorbic acid 100.0 μg/ml): 2956 ± 500
Relative amount of collagen production ([1]; L-ascorbic acid 200.0 μg/ml): 2863 ± 456
Minimum effective amount of L-ascorbic acid for producing collagen ([1]; sole use): 0.5 µg/mL
Concentration at which the level of collagen production reached a plateau level ([1]; sole use, no significant increase above): ≥ 50 µg/mL
Lowest concentration of L-ascorbic acid exerting the collagen-production action in combination with royal jelly [2]: 0.2 µg/mL

O=C1O[C@H]([C@@H](O)CO)C(O)=C1O[C@H]1O[C@H](CO)[C@@H](O)[C@H](O)[C@H]1O [L-ascorbic acid 2-glucoside]
Production level of TGF-β [3, 6]: 132 ± 12
Production level of TGF-β [3, 7]: 111 ± 5
Collagen production level [4, 6]: 298 ± 30
Collagen production level [4, 7]: 219 ± 31
Collagen production level ([4]; L-ascorbic acid 2-glucoside 0.5 μg/ml (as L-ascorbic acid) with royal jelly 200 μg/ml): 1440 ± 70
Collagen production level ([4]; L-ascorbic acid 2-glucoside 0.5 μg/ml (as L-ascorbic acid), no royal jelly): 527 ± 17
Collagen production level ([4]; L-ascorbic acid 2-glucoside 1.0 μg/ml (as L-ascorbic acid) with royal jelly 200 μg/ml): 3168 ± 318
Collagen production level ([4]; L-ascorbic acid 2-glucoside 1.0 μg/ml (as L-ascorbic acid), no royal jelly): 2250 ± 436
Concentration of L-ascorbic acid 2-glucoside at which the collagen production level was enhanced ([4]; compared with the system with no L-ascorbic acid 2-glucoside): ≥ 0.2 µg/mL
Stability dissolved in media ([4]; culture medium, seven days, compared with L-ascorbic acid): advantageously more stable as compared with L-ascorbic acid

Sodium L-ascorbate [L-ascorbic acid]
Collagen production with medium replacement [5]: enhanced level of collagen production
Enhancement of collagen production, negative control ([4]; 1 μg/ml sodium L-ascorbate (as L-ascorbic acid) with 200 μg/ml royal jelly, seven days, medium not replaced): no enhancement of collagen production

From patent US20050048128A1, “Process for producing collagen production enhancers and use thereof” (priority 2001, published 2005)
